Experimental data taken from patent publication US8129381B2, “Caspase inhibitors and uses thereof” (Vertex Pharmaceuticals Incorporated, priority 2002, dated 2012).

What was measured:
rat cortical neurons = experiment: Hypoxia-induced apoptosis of rat cortical neurons; type: cell-based, Wistar rat; conditions: Cortical neurone, oxygen-depleted serum-free medium, Cell Death Detection ELISA (DNA fragmentation)
Method: Cortical neurons are dissociated from Wistar rat embryos (E17) by a modification of the procedure of Rogers et al., Brain Res. Bulletin, 44:131 (1998). Briefly, cerebral cortices are isolated aseptically from 15-20 Wistar rat embryos. A cell suspension is prepared by mincing the cerebral cortices and digesting them with papain. Cells are washed with ovomucoid enzyme inhibitor and DNaseI and plated onto Poly-D lysine coated plates in high glucose DMEM containing 10% heat-inactivated fetal calf serum, L-glutamine, penicillin and streptomycin. The yield of neurons is […] per embryo and they are 80-90% viable as assessed by Trypan blue exclusion.
The neurons are cultured in complete medium at 37° C. in a normal atmosphere for 48 hours prior to the hypoxia experiments. For hypoxia, the normal cell medium is replaced by oxygen-depleted serum-free medium. Cells are incubated in an atmosphere of 95% N2/5% CO2 for various lengths of time. Compounds are dissolved in DMSO at 100 mM then diluted in medium and added to the culture from time=0. The level of apoptosis is measured using a Cell Death Detection ELISA kit (Roche) which detects DNA fragmentation. Plates are read at 405 nm. Controls included cells cultured in aerobic conditions in serum-containing medium (+serum) and cells cultured in aerobic conditions in serum-deprived medium (−serum).
Compounds with an IC50>0.5 μM are listed as “A”. Compounds with an IC50 between 0.1 μM and 0.5 uM are listed as “B”. Compounds with an IC50<0.1 μM are listed as “C”.

[1] = molecular target: recombinant, purified human Caspase-8 (Homo sapiens, UniProt Q14790); experiment: Enzyme assay, caspase inhibition (fluorogenic substrate cleavage); type: biochemical; conditions: second order rate constant of enzyme inactivation; substrate Acetyl-Asp-Glu-Val-Asp-amino-4-methylcoumarin
Source text: (§1) The assays for caspase inhibition are based on the cleavage of a fluorogenic substrate by recombinant, purified human Caspases −1, −3, −7 or −8. The assays are run in essentially the same way as those reported by Garcia-Calvo et al., J. Biol. Chem. 273, 32608-32613 (1998), using a substrate specific for each enzyme. The substrate for Caspase-1 is Acetyl-Tyr-Val-Ala-Asp-amino-4-methylcoumarin and the substrate for Caspases −3, −7 and −8 is Acetyl-Asp-Glu-Val-Asp-amino-4-methylcoumarin both as disclosed in Garcia-Calvo et al., J. Biol. Chem. 273, 32608-32613 (1998).
(§2) The observed rate of enzyme inactivation at a particular inhibitor concentration, kobs, is computed by direct fits of the data to the equation derived by Thornberry et al., Biochemistry, 33, […] (1994) using a nonlinear least-squares analysis computer program (PRISM 2.0; GraphPad software). To obtain the second order rate constant, kinact, kobs values are plotted against their respective inhibitor concentrations and kinact values are subsequently calculated by computerized linear regression.
(§3) Compounds with kinact(M^−1s^−1)>500000 are listed as “A”. Compounds with kinact(M^−1s^−1) between 100000 and 500000 are listed as “B”. Compounds with kinact(M^−1s^−1)<100000 are listed as “C”.

[2] = molecular target: T1, recombinant, purified human Caspase-1 (Homo sapiens, UniProt P29466); experiment: as above; type: biochemical; conditions: second order rate constant of enzyme inactivation; substrate Acetyl-Tyr-Val-Ala-Asp-amino-4-methylcoumarin
T1 sequence (P29466 120-297 limits assumed): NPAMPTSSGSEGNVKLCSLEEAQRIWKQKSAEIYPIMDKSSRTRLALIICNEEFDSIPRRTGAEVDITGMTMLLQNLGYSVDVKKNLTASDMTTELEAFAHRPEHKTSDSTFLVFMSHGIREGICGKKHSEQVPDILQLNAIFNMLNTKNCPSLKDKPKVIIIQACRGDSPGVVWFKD
T1 sequence (P29466 317-404 limits assumed): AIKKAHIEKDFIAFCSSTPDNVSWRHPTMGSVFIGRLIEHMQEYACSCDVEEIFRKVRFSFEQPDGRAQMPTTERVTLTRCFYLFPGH
Source text: as §1, §2, §3

[3] = molecular target: T2, recombinant, purified human Caspase-3 (Homo sapiens, UniProt P42574); experiment: as above; type: biochemical; conditions: second order rate constant of enzyme inactivation; substrate Acetyl-Asp-Glu-Val-Asp-amino-4-methylcoumarin
T2 sequence (P42574 29-175 limits assumed): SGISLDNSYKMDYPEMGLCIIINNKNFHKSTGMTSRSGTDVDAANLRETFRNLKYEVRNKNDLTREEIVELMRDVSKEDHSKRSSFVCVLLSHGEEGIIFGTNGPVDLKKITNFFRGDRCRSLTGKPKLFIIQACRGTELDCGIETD
T2 sequence (P42574 176-277 limits assumed): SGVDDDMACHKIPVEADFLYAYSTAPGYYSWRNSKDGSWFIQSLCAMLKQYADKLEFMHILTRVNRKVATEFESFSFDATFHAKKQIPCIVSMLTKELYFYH
Source text: as §1, §2, §3

[4] = system: IL-1β secretion from human whole blood; experiment: Inhibition of IL-1β secretion from whole blood; type: cell-based; conditions: human whole blood diluted 1:2 in PBS, LPS 5 ng/ml, 18 hours, ELISA
Method: Human blood is freshly drawn from healthy donors and diluted 1:2 in PBS. To 500 μl of diluted blood […] of prediluted test compound in RPMI medium and […] LPS (5 ng/ml final concentration on the plate) are added (LPS, Serotype 0111:B4, Sigma L3012). After stimulation for 18 hours supernatants are collected and assayed for IL-1β levels using the appropriate ELISA kit (R&D systems).
Compounds with an IC50>10 μM are listed as “A”. Compounds with an IC50 between 1 μM and 10 uM are listed as “B”. Compounds with an IC50<1 μM are listed as “C”.

recombinant, purified human Caspase-8, sequence (Q14790 217-374 limits assumed): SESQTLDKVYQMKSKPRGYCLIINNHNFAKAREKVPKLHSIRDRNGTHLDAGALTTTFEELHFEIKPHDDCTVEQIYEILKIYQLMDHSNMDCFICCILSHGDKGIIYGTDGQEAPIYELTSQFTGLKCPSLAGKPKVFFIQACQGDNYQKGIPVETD
recombinant, purified human Caspase-8, sequence (Q14790 385-479 limits assumed): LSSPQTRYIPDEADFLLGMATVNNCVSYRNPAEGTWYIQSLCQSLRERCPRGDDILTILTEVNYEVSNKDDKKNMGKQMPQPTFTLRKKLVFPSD

Structure (SMILES)	IC50 [4]	IC50 (rat cortical neurons)	kinact Caspase-8 [1]	kinact Caspase-1 [2]	kinact Caspase-3 [3]
CC[C@@H](C(=O)NC(CC(=O)O)C(=O)CF)n1cnc2ccc(Sc3cccc(F)c3)cc2c1=O (stereo partly drawn) [Compound 17, 5-Fluoro-3{(2S)-2[6-(3-fluoro-phenylsulfanyl)-4-oxo-4H-quinazolin-3-yl]-butyrylamino}-4-oxo-pentanoic acid]	1000 to 10000 nM	100 to 500 nM	A (Compounds with kinact(M^−1s^−1)>500000 are listed as “A”)	A (Compounds with kinact(M^−1s^−1)>500000 are listed as “A”)	A (Compounds with kinact(M^−1s^−1)>500000 are listed as “A”)
CC[C@@H](C(=O)NC(CC(=O)O)C(=O)CF)n1cnc2ccc(Sc3ccccc3)cc2c1=O (stereo partly drawn) [Compound 16, 5-Fluoro-4-oxo-3-[(2S)-2-(4-oxo-6-phenylsulfanyl-4H-quinazolin-3-yl)-butyrylamino]-pentanoic acid]	1000 to 10000 nM	100 to 500 nM	A (Compounds with kinact(M^−1s^−1)>500000 are listed as “A”)	A (Compounds with kinact(M^−1s^−1)>500000 are listed as “A”)	A (Compounds with kinact(M^−1s^−1)>500000 are listed as “A”)
CC[C@@H](C(=O)NC(CC(=O)O)C(=O)CF)n1cnc2ccc(Oc3ccc(Cl)cc3Cl)cc2c1=O (stereo partly drawn) [Compound 15, 3-{(2S)-2-[6-(2,4-Dichloro-phenoxy)-4-oxo-4H-quinazolin-3-yl]-butyrylamino}-5-fluoro-4-oxo-pentanoic acid]	1000 to 10000 nM	100 to 500 nM	A (Compounds with kinact(M^−1s^−1)>500000 are listed as “A”)	B (Compounds with kinact(M^−1s^−1) between 100000 and 500000 are listed as “B”)	B (Compounds with kinact(M^−1s^−1) between 100000 and 500000 are listed as “B”)
CC(C)[C@@H](C(=O)NC(CC(=O)O)C(=O)CF)n1ccc2ccc(Cl)cc2c1=O (mixture of isomers) [Compound 18, (S)-3-[2-(7-chloro-1-oxo-1H-isoquinolin-2-yl)-3-methylbutyrylamino]-5-fluoro-4-oxo-pentanoic acid]	1000 to 10000 nM	100 to 500 nM	C (Compounds with kinact(M^−1s^−1)<100000 are listed as “C”)	B (Compounds with kinact(M^−1s^−1) between 100000 and 500000 are listed as “B”)	B (Compounds with kinact(M^−1s^−1) between 100000 and 500000 are listed as “B”)
CC[C@@H](C(=O)NC(CC(=O)O)C(=O)CF)n1ccc2ccc(-c3ccccc3)cc2c1=O (mixture of isomers) [Compound 21, (S)-3-[2-(7-phenyl-1-oxo-1H-isoquinolin-2-yl)-butyrylamino]-5-fluoro-4-oxo-pentanoic acid]	1000 to 10000 nM	100 to 500 nM	A (Compounds with kinact(M^−1s^−1)>500000 are listed as “A”)	A (Compounds with kinact(M^−1s^−1)>500000 are listed as “A”)	A (Compounds with kinact(M^−1s^−1)>500000 are listed as “A”)
CC[C@@H](C(=O)NC(CC(=O)O)C(=O)CF)n1cnc2ccc(Oc3cccc(Cl)c3)cc2c1=O (stereo partly drawn) [Compound 13, 3-[(2S)-2-[6-(3-Chlorophenoxy)-4-oxo-4H-quinazolin-3-yl)-butyrylamino]-5-fluoro-4-oxo-pentanoic acid]	1000 to 10000 nM	100 to 500 nM	A (Compounds with kinact(M^−1s^−1)>500000 are listed as “A”)	B (Compounds with kinact(M^−1s^−1) between 100000 and 500000 are listed as “B”)	B (Compounds with kinact(M^−1s^−1) between 100000 and 500000 are listed as “B”)

The next lines start with results.

IC50 [4]	Structure (SMILES)	IC50 (rat cortical neurons)	kinact Caspase-8 [1]	kinact Caspase-1 [2]	kinact Caspase-3 [3]
1000 to 10000 nM	CC[C@@H](C(=O)NC(CC(=O)O)C(=O)CF)n1ccc2cc(Cl)ccc2c1=O (mixture of isomers) [Compound 3, (S)-3-[2-(6-chloro-1-oxo-1H-isoquinolin-2-yl)-butyrylamino]-5-fluoro-4-oxo-pentanoic acid]	100 to 500 nM	C (Compounds with kinact(M^−1s^−1)<100000 are listed as “C”)	B (Compounds with kinact(M^−1s^−1) between 100000 and 500000 are listed as “B”)	B (Compounds with kinact(M^−1s^−1) between 100000 and 500000 are listed as “B”)
1000 to 10000 nM	CC[C@@H](C(=O)N[C@@H](CC(=O)O)C(=O)COc1c(F)c(F)cc(F)c1F)n1ccc2ccc(C(F)(F)F)cc2c1=O [Compound 19, (S,S)-3-[2-(7-trifluoromethyl-1-oxo-1H-isoquinolin-2-yl)-butyrylamino]-4-oxo-5-(2,3,5,6-tetrafluoro-phenoxy)-pentanoic acid]	< 100 nM	C (Compounds with kinact(M^−1s^−1)<100000 are listed as “C”)	A (Compounds with kinact(M^−1s^−1)>500000 are listed as “A”)	A (Compounds with kinact(M^−1s^−1)>500000 are listed as “A”)
< 1000 nM	CC[C@@H](C(=O)NC(CC(=O)O)C(=O)CF)n1cnc2ccc(Oc3cccc(F)c3)cc2c1=O (stereo partly drawn) [Compound 14, 5-Fluoro-3-{(2S)-2[6-(3-fluorophenoxy)-4-oxo-4H-quinazolin-3-yl]-butyrylamino}-4-oxo-pentanoic acid]	> 500 nM	B (Compounds with kinact(M^−1s^−1) between 100000 and 500000 are listed as “B”)	A (Compounds with kinact(M^−1s^−1)>500000 are listed as “A”)	A (Compounds with kinact(M^−1s^−1)>500000 are listed as “A”)
< 1000 nM	CC[C@@H](C(=O)NC(CC(=O)O)C(=O)CF)n1ccc2ccc(Cl)cc2c1=O (mixture of isomers) [Compound 1, (S)-3-[2-(7-chloro-1-oxo-1H-isoquinolin-2-yl)-butyrylamino]-5-fluoro-4-oxo-pentanoic acid]	100 to 500 nM	B (Compounds with kinact(M^−1s^−1) between 100000 and 500000 are listed as “B”)	A (Compounds with kinact(M^−1s^−1)>500000 are listed as “A”)	A (Compounds with kinact(M^−1s^−1)>500000 are listed as “A”)
